This passage reports IC50 and Ki results from BindingDB's records for doi:10.1021/jm0100537 (Glaxosmithkline, 2001).

A word on the IC50: it is the concentration that inhibits the measured activity by half. Usually Ki stands for the equilibrium dissociation constant of an inhibitor or competing ligand from its target. The low end stands for higher affinity, the high end for lower affinity.

Each structure is given as a SMILES string.

Common to all, as to experiment: Caspase Inhibition Assay
The target of one experiment is T1, Caspase-3 (Homo sapiens, UniProt P42574).
T1 sequence (P42574 whole entry): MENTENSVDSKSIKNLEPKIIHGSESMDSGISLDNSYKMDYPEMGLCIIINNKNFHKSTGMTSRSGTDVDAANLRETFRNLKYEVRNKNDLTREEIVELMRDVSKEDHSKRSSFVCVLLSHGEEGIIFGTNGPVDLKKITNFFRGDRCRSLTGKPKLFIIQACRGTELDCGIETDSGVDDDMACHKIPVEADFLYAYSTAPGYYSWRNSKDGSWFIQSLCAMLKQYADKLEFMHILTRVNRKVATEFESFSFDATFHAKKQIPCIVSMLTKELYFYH

The target in a further experiment is T2, Caspase-9 (Homo sapiens, UniProt P55211).
T2 sequence (P55211 whole entry): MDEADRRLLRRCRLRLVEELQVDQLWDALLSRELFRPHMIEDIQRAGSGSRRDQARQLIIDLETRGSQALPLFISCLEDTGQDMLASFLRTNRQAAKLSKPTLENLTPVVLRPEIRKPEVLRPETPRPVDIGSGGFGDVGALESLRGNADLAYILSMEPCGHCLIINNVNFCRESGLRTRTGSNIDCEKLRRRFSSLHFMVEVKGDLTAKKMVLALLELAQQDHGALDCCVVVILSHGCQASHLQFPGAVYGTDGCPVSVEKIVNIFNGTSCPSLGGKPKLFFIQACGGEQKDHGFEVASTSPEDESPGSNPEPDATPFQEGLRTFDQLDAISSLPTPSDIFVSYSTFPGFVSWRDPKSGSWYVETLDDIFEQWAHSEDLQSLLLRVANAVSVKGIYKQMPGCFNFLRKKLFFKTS

A further experiment addresses T3, Caspase-2 (Homo sapiens, UniProt P42575).
T3 sequence (P42575 whole entry): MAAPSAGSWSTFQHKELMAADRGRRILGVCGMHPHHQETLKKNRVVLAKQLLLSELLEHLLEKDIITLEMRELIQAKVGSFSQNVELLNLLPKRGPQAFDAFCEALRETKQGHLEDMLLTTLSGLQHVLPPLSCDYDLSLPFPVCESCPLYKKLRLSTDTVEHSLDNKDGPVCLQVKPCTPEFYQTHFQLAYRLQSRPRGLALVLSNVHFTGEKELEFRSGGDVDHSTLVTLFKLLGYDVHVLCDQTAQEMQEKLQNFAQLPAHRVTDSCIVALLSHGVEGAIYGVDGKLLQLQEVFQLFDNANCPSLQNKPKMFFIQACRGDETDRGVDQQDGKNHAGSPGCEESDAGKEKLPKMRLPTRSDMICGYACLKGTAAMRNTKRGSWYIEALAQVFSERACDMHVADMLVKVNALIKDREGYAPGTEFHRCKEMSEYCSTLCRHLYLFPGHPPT

The target of another experiment is Caspase-8 (Homo sapiens, UniProt Q14790).
Caspase-8, sequence (Q14790 217-374 limits assumed): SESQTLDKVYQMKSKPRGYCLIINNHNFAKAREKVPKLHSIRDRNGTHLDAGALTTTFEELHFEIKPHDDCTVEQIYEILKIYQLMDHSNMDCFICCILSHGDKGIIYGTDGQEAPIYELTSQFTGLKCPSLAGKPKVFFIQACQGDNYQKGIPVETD
Caspase-8, sequence (Q14790 385-479 limits assumed): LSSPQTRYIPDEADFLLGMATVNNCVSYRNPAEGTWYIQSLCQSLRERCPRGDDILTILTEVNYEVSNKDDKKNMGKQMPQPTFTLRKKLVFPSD
In the next experiment the target is T4, Caspase-1 (Homo sapiens, UniProt P29466).
T4 sequence (P29466 whole entry): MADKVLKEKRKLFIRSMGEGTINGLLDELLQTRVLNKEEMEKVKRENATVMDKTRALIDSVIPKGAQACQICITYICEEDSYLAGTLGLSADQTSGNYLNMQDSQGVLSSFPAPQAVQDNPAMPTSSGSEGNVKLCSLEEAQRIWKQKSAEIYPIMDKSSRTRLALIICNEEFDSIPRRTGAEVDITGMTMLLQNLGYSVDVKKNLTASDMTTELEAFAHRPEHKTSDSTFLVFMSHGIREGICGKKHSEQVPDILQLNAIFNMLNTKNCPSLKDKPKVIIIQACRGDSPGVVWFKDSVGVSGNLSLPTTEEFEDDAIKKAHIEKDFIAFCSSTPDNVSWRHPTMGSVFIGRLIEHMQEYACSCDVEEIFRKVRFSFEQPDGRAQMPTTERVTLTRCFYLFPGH

In a further experiment the target is T5, Caspase-6 (Homo sapiens, UniProt P55212).
T5 sequence (P55212 whole entry): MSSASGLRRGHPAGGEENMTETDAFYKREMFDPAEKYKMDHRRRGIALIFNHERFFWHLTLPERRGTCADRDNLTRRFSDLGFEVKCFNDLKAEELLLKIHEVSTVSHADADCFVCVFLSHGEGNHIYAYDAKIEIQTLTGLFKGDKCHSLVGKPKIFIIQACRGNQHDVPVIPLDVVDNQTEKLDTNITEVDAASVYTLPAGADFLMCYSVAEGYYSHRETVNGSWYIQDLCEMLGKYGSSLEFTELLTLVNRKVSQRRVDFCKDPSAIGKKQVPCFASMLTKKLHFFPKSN

In another experiment the target is T6, Caspase-4 (Homo sapiens, UniProt P49662).
T6 sequence (P49662 whole entry): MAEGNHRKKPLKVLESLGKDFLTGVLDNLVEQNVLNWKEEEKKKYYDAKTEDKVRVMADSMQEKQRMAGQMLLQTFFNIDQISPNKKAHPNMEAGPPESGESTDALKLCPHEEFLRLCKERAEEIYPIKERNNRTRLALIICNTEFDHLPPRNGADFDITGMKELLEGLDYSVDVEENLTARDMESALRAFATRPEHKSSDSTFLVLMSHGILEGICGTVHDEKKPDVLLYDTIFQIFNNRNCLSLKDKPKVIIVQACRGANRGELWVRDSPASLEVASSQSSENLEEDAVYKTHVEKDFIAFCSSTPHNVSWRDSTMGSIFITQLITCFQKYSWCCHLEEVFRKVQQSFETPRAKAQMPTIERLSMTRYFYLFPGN

For another experiment, the target named is T7, Caspase-7 (Homo sapiens, UniProt P55210).
T7 sequence (P55210 whole entry): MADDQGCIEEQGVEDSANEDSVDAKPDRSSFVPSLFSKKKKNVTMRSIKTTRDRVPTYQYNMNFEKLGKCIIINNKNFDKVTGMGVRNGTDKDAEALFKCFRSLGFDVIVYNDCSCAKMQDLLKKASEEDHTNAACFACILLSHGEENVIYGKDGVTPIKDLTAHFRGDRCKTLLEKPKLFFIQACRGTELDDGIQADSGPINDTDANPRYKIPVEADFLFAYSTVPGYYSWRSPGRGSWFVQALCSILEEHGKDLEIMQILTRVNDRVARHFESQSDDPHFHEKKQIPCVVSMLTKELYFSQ

`O=C1Nc2ccc([N+](=O)[O-])cc2C1=O` [5-nitro-2,3-dihydro-1H-indole-2,3-dione] displayed an IC50 at Caspase-3 (pH 7.5, 30 °C) of 3 µM. In other words, the single-digit micromolar range.

For `O=C1Nc2ccc(S(=O)(=O)N3CCC[C@@H]3CNc3ccccc3)cc2C1=O` [5-{[(2R)-2-[(phenylamino)methyl]pyrrolidine-1-]sulfonyl}-2,3-dihydro-1H-indole-2,3-dione], the Ki was greater than 50 µM on Caspase-9; 11 µM at Caspase-2; greater than 50 µM at Caspase-8; 12 µM on Caspase-3; greater than 50 µM at Caspase-1; 57 µM at Caspase-6. Further, the Ki was greater than 50 µM on Caspase-4 and 10 µM on Caspase-7. Also, it took 5.5 µM to reach half-maximal inhibition on Caspase-3 (IC50).

As to `O=C1Nc2ccc(S(=O)(=O)N3CCC[C@H]3C(=O)Nc3ccccc3)cc2C1=O` [(2S)-1-[(2,3-dioxo-2,3-dihydro-1H-indole-5-)sulfonyl]-N-phenylpyrrolidine-2-carboxamide], half-maximal inhibition on Caspase-3 (IC50) required 0.14 µM.

`CN1C(=O)C(=O)c2cc(S(=O)(=O)N3CCC[C@H]3COc3ccccc3)ccc21` [(S)-1-Methyl-5-{1-[2-(phenoxymethyl)pyrrolidinyl]sulfonyl}isatin] came in with an IC50 against Caspase-3 of 0.03 µM.
